# According to US20080311103A1, “Anti-Inflammatory Peptides and Methods of Use Thereof” (YEDA RESEARCH AND DEVELOPMENT CO. LTD. at THE WEIZMANN …, priority 2004, published 2008):
# Assays:
# [1] = test system: lymph node cells of oxazalone-sensitized mice transferred to syngeneic recipient mice; assay: Adoptive transfer DTH assay; format: in vivo, mouse; conditions: lymph node cells incubated 20 hours with peptide (10 rig/ml), injected i.v. to recipient mice; ear swelling after 24 hours
# Procedure: Female inbred BALB/c mice (The Jackson Laboratory, Bar Harbor, Me.) were sensitized on the shaved abdominal skin with 2% oxazalone (100 μl) dissolved in acetone/olive oil [4:1 (vol/vol)]. Two donor mice were sensitized for one recipient mouse. On day 5, lymph nodes were removed and single-cell suspensions of lymph node cells were prepared. Lymph node cells were incubated (20 hours) with either peptide No. 3 or peptide No. 5 (10 rig/ml) in RPMI 1640 containing 10% FCS. After the incubation, the cells were washed, resuspended with PBS and injected intravenously (40 million cells per mouse) to syngeneic recipient mice. The mice were immediately challenged with 0.5% oxazalone in acetone/olive oil (10 μl given topically to each side of the ear) to elicit DTH reactions. The increment of ear swelling was measured after 24 hours.
# [2] = test system: Jurkat and THP-1 cells; assay: TNFα secretion by PMA/PHA induced Jurkat and THP-1 cells; format: cell-based, human; conditions: peptide 1 μg/ml; 48 hours; ELISA
# Procedure: Jurkat cells human T cell lymphoma line) (2×10^6 cells/ml) cultured in RPMI-1640 supplemented with 10% FCS were activated with PMA (50 ng/ml) and phytohaemagglutinin PHA (4 µg/ml) for 6 hours at 37° C. (7.5% CO2-humidified atmosphere). Thereafter, the cells were washed, plated on 24-well plates (10^6 cells/well in 0.5 ml), and incubated (1 hour at 37° C., 7.5% CO2-humidified atmosphere) with the indicated concentrations of peptides 1-5. Following the incubation, THP-1 cells (human monocytic cell line derived from a patient with acute monocytic leukaemia; 1.25×10^5 cells/0.5 ml/well) were added to the wells. After 48 hours, the supernatants were collected and their TNF[…] content was determined by ELISA using anti TNF[…] mAb (Pharmingen; San Diego, Calif.) according to the manufacturer's instructions.
# [3] = test system: anti-CD3 antibody induced TNFα secretion from T cells; assay: TNFα secretion by anti-CD3 activated T cells; format: cell-based, human; conditions: peptide 100 ng/ml; 24 hours; ELISA; FIG. 7A
# Procedure: (§1) Human T cells were purified and maintained in culture (RPMI containing 10% FCS, 1% Pyruvate, 1% glutamine, 1% antibiotics, 7.5% CO2, humidified atmosphere) for 15 hr before they were transferred to RPMI and activated (2 hr, 37° C.) with the indicated concentrations of the peptides. The cells were then plated (1.5×10^6 cells/0.5 ml/well) in 24 wells plates (non-tissue culture grade) precoated with anti-CD3 mAb in order to stimulate the cells to secrete cytokines. After 24 hours, the supernatants were collected and their cytokine content (TNFα and IFNγ) was determined by ELISA using anti-IFNγ and anti TNFα mAb (Pharmingen; San Diego, Calif.) according to the manufacturer's instructions.
# [4] = test system: anti-CD3 antibody induced IFNγ secretion from T cells; assay: IFNγ secretion by anti-CD3 activated T cells; format: cell-based, human; set-up: concentration or dose not given beside the values; conditions: 24 hours; ELISA; FIG. 7B
# Procedure: as §1
sequence,measurement,setting,value
"WDNLEKETEGL [peptide No. 3, residues 96-106 of Apo A-I; identified in wound fluids, then synthesized]",inhibition of adoptive transfer DTH response,[1],80%
same,inhibition of TNFα secretion by Jurkat and THP-1 cells compared to PMA/PHA alone,[2],50%
same,inhibition of anti-CD3 antibody induced TNFα secretion from T cells,[3],50%
same,inhibition of anti-CD3 antibody induced IFNγ secretion from T cells,[4],65%
